Earlier results as cited in patent publication US20070036839A1, “Phosphorylated glucomannane polysaccharides containing 1-6 and 1-2 linkages increase weight gain in poultry” (priority 2005, published 2007).

System: macrophages
Settings: single low dose by intramuscular injection; cited from earlier work

## Acemannan [ACM 1]
  activation of macrophages: systemic immuno-modulated activation of macrophages
